Results: patent US6956139B2, “(1R, 2S, 5R)-3-1-menthoxyalkan-1-OL cooling sensate” (Takasago International Corporation, priority 2000, dated 2005)

Tested on: evaluators
Assay: Six evaluators swished a 150 ppm solution of each compound; flavor quality and cooling reported at intervals after spitting out
Assay type: in vivo, human
Conditions: for quality of the flavor and cooling characteristics, 30 Minutes: 10 ml of 150 ppm solution swished 15 seconds and spit out, 30 minutes after spitting out; for cooling lasting (duration) / Peak cool at (time): 10 ml of 150 ppm solution swished 15 seconds, time after spitting out
Method: The enantiomeric compounds of the present invention, Examples 1 through 3 (E1, E2 and E3), were tested against the prior art racemic mixture of 2-(5-methyl-2-(methylethyl)-cyclohexyloxy)-ethan-1-ol (C1). Six evaluators swished 10 ml of a 150 ppm solution of each compound for 15 seconds and spit out. The quality of the flavor and cooling characteristics were reported at various intervals after spitting out.

## CC1CCC(C(C)C)C(OCCO)C1 (centres unmarked) [Example C1, (d,l)-2-(5′-methyl-2′-(methylethyl)cyclohexyloxy)ethan-1-ol, reference compound]
  quality of the flavor and cooling characteristics, 30 Minutes: no cooling
  cooling lasting (duration): 10 to 15 min

## CC(C)[C@@H]1CC[C@@H](C)C[C@H]1OCCO [Example E1, [1′R,2′S,5′R]-2-(5′-methyl-2′-(methylethyl)cyclohexyloxy)ethan-1-ol]
  quality of the flavor and cooling characteristics, 30 Minutes: cooling
  Peak cool at (time): 15 min

## CC(C)[C@@H]1CC[C@@H](C)C[C@H]1OCCCO [Example E2, [1′R,2′S,5′R]-3-(5′-methyl-2′-(methylethyl)cyclohexyloxy)propan-1-ol]
  Peak cool at (time): 10 to 13 min
  cooling lasting (duration): cooling 30+ min.

## CC(C)[C@@H]1CC[C@@H](C)C[C@H]1OCCCCO [Example E3, [1′R,2′S,5′R]-4-(5′-methyl-2′-(methylethyl)cyclohexyloxy)butan-1-ol]
  quality of the flavor and cooling characteristics, 30 Minutes: cooling
  Peak cool at (time): 7 min
